Measured values published in PubChem BioAssay (NCI).
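Method: 48-hour compound exposure of cells in 96-well plates, five concentrations, linear interpolation of endpoints. GI50 is the concentration that inhibits growth by half. Definition used: TGI = concentration required for complete inhibition of growth.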

Assays:
Experiment in all cases: NCI tumour cell line growth inhibition, 48 h
[1] = test system: A549 NSCLC
[2] = test system: HOP-92 NSCLC
[3] = test system: CAKI-1 renal
[4] = test system: TK-10 renal
[5] = test system: HL-60(TB) leukemia
[6] = test system: SR leukemia
[7] = test system: RPMI-8226 leukemia
[8] = test system: SF-295 CNS
[9] = test system: LOX IMVI melanoma
[10] = test system: HCT-15 colon
[11] = test system: SF-539 CNS
[12] = test system: HT29 colon
[13] = test system: M14 melanoma
[14] = test system: MDA-MB-231 breast
[15] = test system: SW-620 colon
[16] = test system: HCT-116 colon
[17] = test system: KM12 colon
[18] = test system: NCI-H226 lung
[19] = test system: DU-145 prostate
[20] = test system: OVCAR-8 ovarian
[21] = test system: IGROV1 ovarian
[22] = test system: MOLT-4 leukemia
[23] = test system: BT-549 breast
[24] = test system: T-47D breast
[25] = test system: SK-MEL-28 melanoma
[26] = test system: HOP-62 NSCLC
[27] = test system: OVCAR-3 ovarian
[28] = test system: UACC-257 melanoma
[29] = test system: NCI-H460 lung
[30] = test system: ACHN renal
[31] = test system: UO-31 renal
[32] = test system: SK-MEL-5 melanoma
[33] = test system: SNB-19 CNS
[34] = test system: CCRF-CEM leukemia
[35] = test system: K-562 leukemia
[36] = test system: PC-3 prostate
[37] = test system: UACC-62 melanoma
[38] = test system: MCF7 breast
[39] = test system: 786-0 renal
[40] = test system: MDA-MB-435
[41] = test system: COLO 205 colon
[42] = test system: SK-MEL-2 melanoma
[43] = test system: HCC-2998 colon
[44] = test system: SN12C renal
[45] = test system: U251 CNS
[46] = test system: OVCAR-4 ovarian
[47] = test system: HS 578T breast
[48] = test system: SF-268 CNS
[49] = test system: EKVX NSCLC
[50] = test system: OVCAR-5 ovarian
[51] = test system: A498 renal
[52] = test system: NCI-H23 lung
[53] = test system: NCI/ADR-RES ovarian
[54] = test system: NCI-H522 lung

For C=CCC1(O)c2ccccc2C(=O)c2c(OCC(=O)OCC)ccc(OCC(=O)OCC)c21 (stereo not drawn), the GI50 [1] was > 100 µM, the TGI [1] was > 100 µM and the GI50 [2] was 41.9 µM. The TGI [2] was > 100 µM, the GI50 [3] was > 100 µM and the TGI [3] was > 100 µM. The GI50 [4] was > 100 µM, the TGI [4] was > 100 µM and the GI50 [5] was 75.9 µM. The TGI [5] was > 100 µM, the GI50 [6] was 82.6 µM and the TGI [6] was > 100 µM. For the same compound, the GI50 [7] was 89 µM, the TGI [7] was > 100 µM and the GI50 [8] was > 100 µM. For the same compound, the TGI [8] was > 100 µM, the GI50 [9] was > 100 µM and the TGI [9] was > 100 µM. The GI50 [10] was > 100 µM, the TGI [10] was > 100 µM and the GI50 [11] was > 100 µM. The TGI [11] was > 100 µM, the GI50 [12] was > 100 µM and the TGI [12] was > 100 µM. For the same compound, the GI50 [13] was > 100 µM, the TGI [13] was > 100 µM and the GI50 [14] was 25.6 µM. For the same compound, the TGI [14] was > 100 µM, the GI50 [15] was > 100 µM and the TGI [15] was > 100 µM. For the same compound, the GI50 [16] was > 100 µM, the TGI [16] was > 100 µM and the GI50 [17] was > 100 µM. The TGI [17] was > 100 µM, the GI50 [18] was > 100 µM and the TGI [18] was > 100 µM. The GI50 [19] was > 100 µM, the TGI [19] was > 100 µM and the GI50 [20] was > 100 µM. For the same compound, the TGI [20] was > 100 µM, the GI50 [21] was > 100 µM and the TGI [21] was > 100 µM. For the same compound, the GI50 [22] was 51 µM, the TGI [22] was > 100 µM and the GI50 [23] was > 100 µM. The TGI [23] was > 100 µM, the GI50 [24] was > 100 µM and the TGI [24] was > 100 µM. The GI50 [25] was > 100 µM, the TGI [25] was > 100 µM and the GI50 [26] was > 100 µM. The TGI [26] was > 100 µM, the GI50 [27] was > 100 µM and the TGI [27] was > 100 µM. The GI50 [28] was > 100 µM, the TGI [28] was > 100 µM and the GI50 [29] was 84.9 µM. The TGI [29] was > 100 µM, the GI50 [30] was > 100 µM and the TGI [30] was > 100 µM. For the same compound, the GI50 [31] was > 100 µM, the TGI [31] was > 100 µM and the GI50 [32] was > 100 µM. For the same compound, the TGI [32] was > 100 µM, the GI50 [33] was > 100 µM and the TGI [33] was > 100 µM. For the same compound, the GI50 [34] was > 100 µM, the TGI [34] was > 100 µM and the GI50 [35] was > 100 µM. For the same compound, the TGI [35] was > 100 µM, the GI50 [36] was > 100 µM and the TGI [36] was > 100 µM. For the same compound, the GI50 [37] was 64.7 µM, the TGI [37] was > 100 µM and the GI50 [38] was > 100 µM. The TGI [38] was > 100 µM, the GI50 [39] was > 100 µM and the TGI [39] was > 100 µM. For the same compound, the GI50 [40] was > 100 µM, the TGI [40] was > 100 µM and the GI50 [41] was > 100 µM. The TGI [41] was > 100 µM, the GI50 [42] was > 100 µM and the TGI [42] was > 100 µM. The GI50 [43] was 44.9 µM, the TGI [43] was > 100 µM and the GI50 [44] was 87.6 µM. For the same compound, the TGI [44] was > 100 µM, the GI50 [45] was 81 µM and the TGI [45] was > 100 µM. For the same compound, the GI50 [46] was > 100 µM, the TGI [46] was > 100 µM and the GI50 [47] was > 100 µM. The TGI [47] was > 100 µM, the GI50 [48] was > 100 µM and the TGI [48] was > 100 µM. The GI50 [49] was > 100 µM, the TGI [49] was > 100 µM and the GI50 [50] was > 100 µM. The TGI [50] was > 100 µM, the GI50 [51] was > 100 µM and the TGI [51] was > 100 µM. For the same compound, the GI50 [52] was > 100 µM, the TGI [52] was > 100 µM and the GI50 [53] was > 100 µM. The TGI [53] was > 100 µM, the GI50 [54] was > 100 µM and the TGI [54] was > 100 µM.
